The text below walks through data of US8158143B2, “Systems for releasing active ingredients, based on biodegradable or biocompatible polymers with a shape memory effect” (Helmholtz-Zentrum Geesthacht Zentrum fuer Material- und …, priority 2000, dated 2012).

A short description of this series: Drug release experiments (phosphate buffer pH 7, 37° C.). The format is physicochemical. On the procedure:
Furthermore drug release tests were carried out with biodegradable matrix polymers. The above mentioned polyester methacrylate networks were loaded with 5% gentamicin and enoxazin, respectively. Samples having a size of 1×2 cm^2 were cut open and placed into a medium for release (4 ml phosphate buffer, pH 7). The pieces of the films were placed in tubes for a centrifuge, in a manner allowing the buffer solution to contact the films from all sides. The centrifuge tubes were placed into a shaking water bath at 37° C. and at predetermined intervals the medium for release was exchanged completely in order to determine the amount of the drug released. […] Samples are placed into polypropylene centrifuge vessels (which may be closed) of a volume of 15 ml and placed into contact with 4 ml of the releasing medium. […] The release experiment is carried out in a temperature controlled shaking water bath at 37° C. with 60 revolutions per minute. The temperature is controlled with an accuracy of ±0.1 K. […] The experiment is concluded when all of the drug has been released. The establishment of the release profile occurs by means of determination of the released drug by UV-Vis-spectroscopy. The resulting release profiles represent the arithmetical average from parallel experiments regarding the release from three samples of one material. If the experiment is terminated prior to the complete release of the drug from the matrix, a determination of the drug remaining in the polymer network becomes necessary. […] Using 5 ml chloroform the networks are swollen, and destroyed mechanically using a glass rod. Using additional 5 ml chloroform the swollen enoxacin containing fragments are extracted. With […] containing networks extraction is carried out using 5 ml 2-propanol. […] The content of drug remaining in the matrix is added to the content as determined with the release experiment.

Where [1] appears, read: from amorphous matrix N-LG(18)-10 (FIG. 4).
Setting [2] is: matrix based on paradioxanone and caprolactone, unmodified.

`CCOc1ccc2nc3cc(N)ccc3c(N)c2c1` [ethacridine lactate]: the drug release profile entry is, setting by setting: under setting [1], “released more rapidly”; (networks on the basis of polylactide-co-glycolide, segment Mn about 10000, 15 wt.-% glycolide content) “substantially linear release, with a slightly accelerated release at the beginning”. As for `O=C1CN(/N=C/c2ccc([N+](=O)[O-])o2)C(=O)N1` [nitrofurantoine], under setting [1], the drug release profile entry is listed as “step profile”. For gentamicin, under setting [2], the “drug release profile at the beginning of the release” value is reported as “rapid release (burst-effect)” and the “time until plateau of release is reached” value is given as “within two days”.
